This note sets out measurements from article PMC5805748 (2018).

The test system of assay [1] is 19AT-D (DNA, duplex) ACGTCGATTATAGACGAGC/GCTCGTCTATAATCGACGT
The assay is described as follows: native PAGE post-staining. As to conditions: 20 μM ThT-E stain; no band; fluorescence rise below 3-fold.

Assay [2] deals with BCL-2Mid-D (DNA, G4) GGGCGCGGGAGGAATTGGGCGGG
The assay is described as follows: native PAGE post-staining. The note with it: 20 μM ThT-E stain; band seen.

The test system of assay [3] is G-tripl-D (DNA, other) GGTTGGTGTGG
The assay is described as follows: native PAGE post-staining. The note with it: 20 μM ThT-E stain; no band.

Assay [4] concerns 32 Kras-D (DNA, G4) AGGGCGGTGTGGGAAGAGGGAAGAGGGGGAGG
The assay is described as follows: fluorescence light-up. The note with it: K+ 40 mM; 20 mM Tris-HCl, pH 7.4; 2 μM ThT-E, 2 μM DNA; 125-fold.

Assay [5] concerns VAV1-D (DNA, G4) GGGCAGGGAGGGAACTGGG
The assay is described as follows: ITC. As to conditions: K+ 40 mM; 20 mM Tris-HCl, pH 7.4; 500 μM ligand into 25 μM DNA.

Assay [6] concerns c-myc-D (DNA, G4) TGAGGGTGGGTAGGGTGGGTAA
The assay is described as follows: 1H NMR titration. The note with it: K+ 40 mM; phosphate buffer, pH 7.4, 25 °C; stacks on 5'-end G-tetrad.

Assay [7] has the same test system. The assay is described as follows: UV-vis titration. As to conditions: 2 μM ThT-E, 0 to 8 μM DNA; 23 nm red shift.
For assay [8], the system named is TBA-D (DNA, G4) GGTTGGTGTGGTTGG
The assay is described as follows: fluorescence light-up. The note with it: K+ 40 mM; 20 mM Tris-HCl, pH 7.4; 2 μM ThT-E, 2 μM DNA.

The test system of assay [9] is ERSI-D (DNA, G4) GGGTAGGGGCAAAGGGGCTGGGG
The assay is described as follows: ITC. As to conditions: K+ 40 mM; 20 mM Tris-HCl, pH 7.4; 500 μM ligand into 25 μM DNA.

The test system of assay [10] is dx12-D (DNA, duplex) GCGTGAGTTCGG/CCGAACTCACGC
The assay is described as follows: native PAGE post-staining. As to conditions: 20 μM ThT-E stain; no band.

In assay [11] the test system is B-raf-D (DNA, G4) GGGCGGGGAGGGGGAAGGGA
The assay is described as follows: fluorescence light-up. As to conditions: K+ 40 mM; 20 mM Tris-HCl, pH 7.4; 2 μM ThT-E, 2 μM DNA.

The test system of assay [12] is CT4-D (DNA, G4) GGGCTTTTGGGC
The assay is described as follows: fluorescence light-up. As to conditions: K+ 40 mM; 20 mM Tris-HCl, pH 7.4; 2 μM ThT-E, 2 μM DNA.

Assay [13] deals with 22Ag-D (DNA, G4) AGGGTTAGGGTTAGGGTTAGGG
The assay is described as follows: ITC. The note with it: K+ 40 mM; 20 mM Tris-HCl, pH 7.4; 500 μM ligand into 25 μM DNA.

In assay [14] the test system is ssAf17-D (DNA, single strand) CTGAGTTGTATATATTCG
The assay is described as follows: native PAGE post-staining. The note with it: 20 μM ThT-E stain; no band; 2.77-fold fluorescence.

The subject of assay [15] is 45Ag-D (DNA, G4) GGGTTAGGGTTAGGGTTAGGGTTAGGGTTAGGGTTAGGGTTAGGG
The assay is described as follows: fluorescence light-up. The note with it: K+ 40 mM; 20 mM Tris-HCl, pH 7.4; 2 μM ThT-E, 2 μM DNA; 146-fold.

In assay [16] the test system is 21CTA-D (DNA, G4) GGGCTAGGGCTAGGGCTAGGG
The assay is described as follows: native PAGE post-staining. As to conditions: 20 μM ThT-E stain; band seen.

The test system of assay [17] is Bulges-TB1 (DNA, G4) TTGTGGTGGGTGGGTGGGT
The assay is described as follows: fluorescence light-up. As to conditions: K+ 40 mM; 20 mM Tris-HCl, pH 7.4; 2 μM ThT-E; 46.05-fold.

The subject of assay [18] is ADAM10-D (DNA, G4) GGGGGACGGGTAGGGGCGGGAGGTAGGGG
The assay is described as follows: fluorescence light-up. As to conditions: K+ 40 mM; 20 mM Tris-HCl, pH 7.4; 2 μM ThT-E, 2 μM DNA; 159-fold.

For assay [19], the system named is Insulin a2-D (DNA, G4) ACAGGGGTGTGGGGACAGGGGTGTGGGG
The assay is described as follows: native PAGE post-staining. The note with it: 20 μM ThT-E stain; band seen.

The subject of assay [20] is 32 Kras-D (DNA, G4) AGGGCGGTGTGGGAAGAGGGAAGAGGGGGAGG
The assay is described as follows: CD titration. The note with it: no added salt; 20 mM Tris-HCl, pH 7.4; 0 to 30 μM ThT; induces parallel G4.

The test system of assay [21] is 35B1(Kras)-D (DNA, G4) AGGGCGGTGTGGGAAGAGGGAAGAGGGGGAGGCAG
The assay is described as follows: CD titration. The note with it: no added salt; 20 mM Tris-HCl, pH 7.4; 0 to 30 μM ThT; induces parallel G4.

`CCN(CC)c1ccc(-c2sc3cc(C)ccc3[n+]2CC)cc1`: the binding entry was “no” in assay [1]; “yes” in assay [2]; “no” in [3]; “yes” in assay [4]; “yes” in assay [6]; “yes” in assay [7]. Moreover, the binding entry in assay [8] was “weak”; in assay [10], “no”; in assay [11], “yes”; in [12], “weak”; in assay [14] it was “no”; in assay [15] it was “yes”. The binding entry in assay [16], in assay [17], in assay [18] and in [19] was “yes” in each case. Further, the dissociation constant was determined as 74.73 µM in assay [5], 56.81 µM in assay [9] and 17.78 µM in [13].

For the compound `Cc1ccc2c(c1)sc(-c1ccc(N(C)C)cc1)[n+]2C`, the figures for the dissociation constant in [5], in assay [9] and in assay [13] were 334.4 µM, 233.4 µM and 22.03 µM, respectively. The binding result in assay [20] and in assay [21] was “yes” throughout.
